Test results: patent US11207325B2, “Triazolopyrimidine compounds and uses thereof” (Novartis AG, priority 2014, dated 2021)

Tested on: H3K27 methylation in G401 cell
Experiment: ELISA (H3K27 methylation) assay
Format: cell-based
Details: Homo sapiens, G-401; ELISA Qualified assay (H3K27 methylation); read-out: (c) IC50 (μM), ELISA Qualified
Description: ELISA (H3K27 Methylation) Assay

SMILES | IC50 [µM]
CN(C)Cc1ccc(-c2cnc(NCc3cccc4occc34)n3cnnc23)cc1 [Example 208, N-(benzofuran-4-ylmethyl)-8-(4-((dimethylamino)methyl)phenyl)-[1,2,4]triazolo[4,3-c]pyrimidin-5-amine] | 0.019
CS(=O)(=O)CCOc1ccc(-c2cnc(NCc3cccc4c3CCO4)n3cnnc23)cc1 [Example 75, N-((2,3-dihydrobenzofuran-4-yl)methyl)-8-(4-(2-(methylsulfonyl)ethoxy)phenyl)-[1,2,4]triazolo[4,3-c]pyrimidin-5-amine] | 0.298
Cc1nn(C)cc1-c1cnc(NCc2c(F)ccc3c2CCO3)n2cnnc12 [Example 195, 8-(1,3-dimethyl-1H-pyrazol-4-yl)-N-((5-fluoro-2,3-dihydrobenzofuran-4-yl)methyl)-[1,2,4]triazolo[4,3-c]pyrimidin-5-amine] | 0.0024
Cc1c(-c2cnc(NCc3c(F)ccc4c3CCO4)n3cnnc23)ccnc1F [Example 180, N-((5-fluoro-2,3-dihydrobenzofuran-4-yl)methyl)-8-(2-fluoro-3-methylpyridin-4-yl)-[1,2,4]triazolo[4,3-c]pyrimidin-5-amine] | 0.0124
Cc1ncc(-c2cnc(NCc3cccc4c3CCO4)n3cnnc23)cn1 [Example 60, N-((2,3-dihydrobenzofuran-4-yl)methyl)-8-(2-methylpyrimidin-5-yl)-[1,2,4]triazolo[4,3-c]pyrimidin-5-amine] | 0.299
CN(C)Cc1ccc(-c2cnc(NCc3c(F)ccc4c3CCO4)n3cnnc23)cc1 [Example 23, 8-(4-((dimethylamino)methyl)phenyl)-N-((5-fluoro-2,3-dihydrobenzofuran-4-yl)methyl)-[1,2,4]triazolo[4,3-c]pyrimidin-5-amine] | 0.0424
COc1nccc(-c2cnc(NCc3c(F)ccc4c3CCO4)n3cnnc23)c1C [Example 230, N-((5-fluoro-2,3-dihydrobenzofuran-4-yl)methyl)-8-(2-methoxy-3-methylpyridin-4-yl)-[1,2,4]triazolo[4,3-c]pyrimidin-5-amine] | 0.0252
Cc1nn(C)c(C)c1-c1cnc(NCc2cccc3c2CCO3)n2cnnc12 [Example 24, N-((2,3-dihydrobenzofuran-4-yl)methyl)-8-(1,3,5-trimethyl-1H-pyrazol-4-yl)-[1,2,4]triazolo[4,3-c]pyrimidin-5-amine] | 0.162
Cc1c(-c2cnc(NCc3c(F)ccc4c3CCO4)n3cnnc23)ccnc1C(F)F [Example 181, 8-(2-(difluoromethyl)-3-methylpyridin-4-yl)-N-((5-fluoro-2,3-dihydrobenzofuran-4-yl)methyl)-[1,2,4]triazolo[4,3-c]pyrimidin-5-amine] | 0.0208
Cc1noc(C)c1-c1cnc(NCc2c(F)ccc3c2CCO3)n2cnnc12 [Example 71, 8-(3,5-dimethylisoxazol-4-yl)-N-((5-fluoro-2,3-dihydrobenzofuran-4-yl)methyl)-[1,2,4]triazolo[4,3-c]pyrimidin-5-amine] | 0.0426
Cc1c(-c2cnc(NCc3c(F)ccc4c3CCO4)n3cnnc23)cnn1C(C)C [Example 188, N-((5-fluoro-2,3-dihydrobenzofuran-4-yl)methyl)-8-(1-isopropyl-5-methyl-1H-pyrazol-4-yl)-[1,2,4]triazolo[4,3-c]pyrimidin-5-amine] | 0.0036
CC1CCCN1c1ccc(-c2cnc(NCc3cccc4c3CCO4)n3cnnc23)cn1 (stereo not shown) [Example 96, N-((2,3-dihydrobenzofuran-4-yl)methyl)-8-(6-(2-methylpyrrolidin-1-yl)pyridin-3-yl)-[1,2,4]triazolo[4,3-c]pyrimidin-5-amine] | 0.329
Cc1nn(CCO)c(C)c1-c1cnc(NCc2cccc3c2CCO3)n2cnnc12 [Example 67, 2-(4-(5-(((2,3-dihydrobenzofuran-4-yl)methyl)amino)-[1,2,4]triazolo[4,3-c]pyrimidin-8-yl)-3,5-dimethyl-1H-pyrazol-1-yl)ethanol] | 0.521
Cc1ccc(-c2cnc(NCc3c(F)ccc4c3CCO4)n3cnnc23)cn1 [Example 57, N-((5-fluoro-2,3-dihydrobenzofuran-4-yl)methyl)-8-(6-methylpyridin-3-yl)-[1,2,4]triazolo[4,3-c]pyrimidin-5-amine] | 0.0334
Fc1ccccc1-c1cnc(NCc2cccc3c2CCO3)n2cnnc12 [Example 31, N-((2,3-dihydrobenzofuran-4-yl)methyl)-8-(2-fluorophenyl)-[1,2,4]triazolo[4,3-c]pyrimidin-5-amine] | 0.0298
O=C(c1ccc(-c2cnc(NCc3cccc4c3CCO4)n3cnnc23)cn1)N1CCOCC1 [Example 68, (5-(5-(((2,3-dihydrobenzofuran-4-yl)methyl)amino)-[1,2,4]triazolo[4,3-c]pyrimidin-8-yl)pyridin-2-yl)(morpholino)methanone] | 0.378
CC(c1ccc(-c2cnc(NCc3cccc4c3CCO4)n3cnnc23)cc1)N1CCCC1 (stereo not shown) [Example 14, N-((2,3-dihydrobenzofuran-4-yl)methyl)-8-(4-(1-(pyrrolidin-1-yl)ethyl)phenyl)-[1,2,4]triazolo[4,3-c]pyrimidin-5-amine] | 0.0274

SMILES | IC50 [µM]
CN(C)CCc1ccc(-c2cnc(NCc3cccc4c3CCO4)n3cnnc23)cc1 [Example 35, N-((2,3-dihydrobenzofuran-4-yl)methyl)-8-(4-(2-(dimethylamino)ethyl)phenyl)-[1,2,4]triazolo[4,3-c]pyrimidin-5-amine] | 0.0334
Cc1c(-c2cnc(NCc3c(F)ccc4c3C(O)CO4)n3cnnc23)ccc[n+]1[O-] (stereo not shown) [Example 244, 3-(5-(((5-fluoro-3-hydroxy-2,3-dihydrobenzofuran-4-yl)methyl)amino)-[1,2,4]triazolo[4,3-c]pyrimidin-8-yl)-2-methylpyridine 1-oxide] | 0.241
COc1ccc(-c2cnc(NCc3c(F)ccc4c3CCO4)n3cnnc23)c(C)n1 [Example 155, N-((5-fluoro-2,3-dihydrobenzofuran-4-yl)methyl)-8-(6-methoxy-2-methylpyridin-3-yl)-[1,2,4]triazolo[4,3-c]pyrimidin-5-amine] | 0.078
CS(=O)(=O)CCCOc1cncc(-c2cnc(NCc3cccc4c3CCO4)n3cnnc23)c1 [Example 98, N-((2,3-dihydrobenzofuran-4-yl)methyl)-8-(5-(3-(methylsulfonyl)propoxy)pyridin-3-yl)-[1,2,4]triazolo[4,3-c]pyrimidin-5-amine] | 1.42
Fc1ccc2c(c1CNc1ncc(-c3cnccc3Cl)c3nncn13)CCO2 [Example 124] | 0.006
Cc1noc(C)c1-c1cnc(NCc2cccc3c2CCO3)n2cnnc12 [Example 59, N-((2,3-dihydrobenzofuran-4-yl)methyl)-8-(3,5-dimethylisoxazol-4-yl)-[1,2,4]triazolo[4,3-c]pyrimidin-5-amine] | 0.086
CCc1cc(C)c(-c2cnc(NCc3c(F)ccc4c3CCO4)n3cnnc23)cn1 [Example 224, 8-(6-ethyl-4-methylpyridin-3-yl)-N-((5-fluoro-2,3-dihydrobenzofuran-4-yl)methyl)-[1,2,4]triazolo[4,3-c]pyrimidin-5-amine] | 0.0022
Cc1cc(C)c(-c2cnc(NCc3c(F)ccc4c3CCO4)n3cnnc23)cn1 [Example 222, 8-(4,6-dimethylpyridin-3-yl)-N-((5-fluoro-2,3-dihydrobenzofuran-4-yl)methyl)-[1,2,4]triazolo[4,3-c]pyrimidin-5-amine] | 0.0576
Fc1ccc2c(c1CNc1ncc(-c3ccc(N4CCSCC4)nc3)c3nncn13)CCO2 [Example 91, N-((5-fluoro-2,3-dihydrobenzofuran-4-yl)methyl)-8-(6-thiomorpholinopyridin-3-yl)-[1,2,4]triazolo[4,3-c]pyrimidin-5-amine] | 0.0225
Cc1nn(C)cc1-c1cnc(NCc2cccc3c2CCO3)n2cnnc12 [Example 30, N-((2,3-dihydrobenzofuran-4-yl)methyl)-8-(1,3-dimethyl-1H-pyrazol-4-yl)-[1,2,4]triazolo[4,3-c]pyrimidin-5-amine] | 0.069
Fc1ccc2c(c1CNc1ncc(-c3ccnc(N4CCOCC4)c3)c3nncn13)CCO2 [Example 120, N-((5-fluoro-2,3-dihydrobenzofuran-4-yl)methyl)-8-(2-morpholinopyridin-4-yl)-[1,2,4]triazolo[4,3-c]pyrimidin-5-amine] | 0.0721
Cc1c(-c2cnc(NCc3c(F)ccc4c3CCO4)n3cnnc23)ccnc1CF [Example 182, N-((5-fluoro-2,3-dihydrobenzofuran-4-yl)methyl)-8-(2-(fluoromethyl)-3-methylpyridin-4-yl)-[1,2,4]triazolo[4,3-c]pyrimidin-5-amine] | 0.0025
Cc1nn(C[C@@H](C)O)c(C)c1-c1cnc(NCc2c(F)ccc3c2CCO3)n2cnnc12 [Example 186, (2R)-1-(4-(5-(((5-fluoro-2,3-dihydrobenzofuran-4-yl)methyl)amino)-[1,2,4]triazolo[4,3-c]pyrimidin-8-yl)-3,5-dimethyl-1H-pyrazol-1-yl)propan-2-ol] | 0.0068
CS(=O)(=O)Nc1ccc(-c2cnc(NCc3cccc4c3CCO4)n3cnnc23)cc1F [Example 33, N-(4-(5-(((2,3-dihydrobenzofuran-4-yl)methyl)amino)-[1,2,4]triazolo[4,3-c]pyrimidin-8-yl)-2-fluorophenyl)methanesulfonamide] | 0.297
CCOc1ccc(-c2cnc(NCc3cccc4c3CCO4)n3cnnc23)cn1 [Example 63, N-((2,3-dihydrobenzofuran-4-yl)methyl)-8-(6-ethoxypyridin-3-yl)-[1,2,4]triazolo[4,3-c]pyrimidin-5-amine] | 0.198
OCCN1CCN(c2ccc(-c3cnc(NCc4cccc5c4CCO5)n4cnnc34)cn2)CC1 [Example 110, 2-(4-(5-(5-(((2,3-dihydrobenzofuran-4-yl)methyl)amino)-[1,2,4]triazolo[4,3-c]pyrimidin-8-yl)pyridin-2-yl)piperazin-1-yl)ethanol] | 0.124
O=CN1CCN(CCc2ccc(-c3cnc(NCc4cccc5c4CCO5)n4cnnc34)cn2)CC1 [Example 107, 4-(2-(5-(5-(((2,3-dihydrobenzofuran-4-yl)methyl)amino)-[1,2,4]triazolo[4,3-c]pyrimidin-8-yl)pyridin-2-yl)ethyl)piperazine-1-carbaldehyde] | 0.161
